Experimental data: the supplement of paper PMC11579375

Legend:
Experiment in all cases: area under the viability dose-response curve (AUC) (AUC (arbitrary units, max 500 = no viability loss)); higher = less sensitive (higher viability)
Details in all cases: exposure time: 120 h; concentration range: 0.1 nM - 10 µM, 6 doses
[1] = system: 27F1 (fetal-I hepatoblastoma organoid with intermediate liver markers)
Procedure: (§1)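 Patient-derived hepatoblastoma tumor organoids (about 50 organoids per well, 384-well plates, medium with 5% BME) were treated with the PMC pediatric cancer drug library. Each drug was tested in duplicate at 6 concentrations (0.1 nM to 10 µM, 10-fold steps).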

[2] = system: 135F2 (fetal-II hepatoblastoma organoid with high liver markers)
Procedure: as §1

[3] = system: 22E (embryonal-type hepatoblastoma organoid)
Procedure: as §1

[4] = system: 3E (embryonal-type hepatoblastoma organoid)
Procedure: as §1

[5] = system: 8F1 (fetal-I hepatoblastoma organoid with intermediate liver markers)
Procedure: as §1

[6] = system: 96F1 (fetal-I hepatoblastoma organoid with intermediate liver markers)
Procedure: as §1

[7] = system: 13E (embryonal-type hepatoblastoma organoid)
Procedure: as §1

[8] = system: 17F1 (fetal-I hepatoblastoma organoid with intermediate liver markers)
Procedure: as §1

[9] = system: 10F2 (fetal-II hepatoblastoma organoid with high liver markers)
Procedure: as §1

[10] = system: 13F2 (fetal-II hepatoblastoma organoid with high liver markers)
Procedure: as §1

[11] = system: 17E (embryonal-type hepatoblastoma organoid)
Procedure: as §1

| Structure (SMILES) | area under the viability dose-response curve [1] | area under the viability dose-response curve [2] | area under the viability dose-response curve [3] | area under the viability dose-response curve [4] | area under the viability dose-response curve [5] | area under the viability dose-response curve [6] | area under the viability dose-response curve [7] | area under the viability dose-response curve [8] | area under the viability dose-response curve [9] | area under the viability dose-response curve [10] | area under the viability dose-response curve [11] |
| --- | --- | --- | --- | --- | --- | --- | --- | --- | --- | --- | --- |
| O=NN(CCCl)C(=O)NC1CCCCC1 [Lomustine] | > 500 | 487 | 455 | 446 | > 500 | 470 | – | – | – | – | – |
| NC(=O)c1cccc2cn(-c3ccc([C@@H]4CCCNC4)cc3)nc12 [Niraparib] | 478 | 458 | – | 461 | > 500 | 492 | 472 | 490 | 459 | 455 | 495 |
| O=C(O)C(=O)O.[NH-][C@@H]1CCCC[C@H]1[NH-].[Pt+2] [Oxaliplatin] | 481 | – | > 500 | 490 | 486 | – | – | > 500 | 457 | 488 | > 500 |
| O=P(O)(NCCCl)NCCCl [Palifosfamide (Ifosfamide)] | – | – | – | – | – | – | 493 | 477 | 474 | 498 | 473 |
| Cc1cnc(CNC(=O)c2c(=O)c3ccc(N4CCCN(C)CC4)nc3n3c2sc2ccccc23)cn1 [Pidnarulex] | 489 | 402 | 436 | 396 | 472 | 453 | – | – | – | – | – |
| O=C(NC[C@H](O)CO)c1ccncc1Nc1ccc(I)cc1F [Pimasertib] | 457 | 393 | 445 | 456 | > 500 | 467 | – | – | – | – | – |
| Cc1c(Cl)ccc2c1N=C/C2=C\c1[nH]c(=O)n(C(C(=O)NC(CO)CO)c2ccc(F)c(F)c2)c1O (stereo not given) [RO-5963] | – | 459 | 449 | – | – | 446 | – | – | – | – | – |
| CNC(=O)c1cc(Oc2ccc(NC(=O)Nc3ccc(Cl)c(C(F)(F)F)c3)c(F)c2)ccn1 [Regorafenib] | 447 | 404 | – | 387 | 290 | 452 | 418 | 428 | 389 | 430 | 456 |
| CN(C)C(=O)c1cc2cnc(Nc3ccc(N4CCNCC4)cn3)nc2n1C1CCCC1 [Ribociclib] | 442 | 461 | – | 404 | 470 | 472 | 446 | 473 | 442 | 422 | 406 |
| COCc1c(-c2cc3cc(C)cc(OC)c3s2)c2c(N)ncnn2c1CN1CCNC(=O)C1 [Rogaratinib] | 475 | 473 | 440 | 361 | 496 | 485 | – | – | – | – | – |
| C/C=C1\NC(=O)[C@H]2CSSCC/C=C/[C@H](CC(=O)N[C@H](C(C)C)C(=O)N2)OC(=O)[C@H](C(C)C)NC1=O [Romidepsin] | 165 | 137 | – | 87.9 | 145 | 54.5 | 123 | 158 | 141 | 143 | 104 |
| CC1(N)CCN(c2cnc(-c3cccc(Cl)c3Cl)c(N)n2)CC1 [SHP099] | 464 | – | – | 473 | > 500 | – | 500 | 483 | 430 | 479 | > 500 |
| Cn1cc(-n2cnc3c(NCc4nc5cc(Cl)c(Cl)cc5[nH]4)nc(N4CCOCC4)nc32)cn1 [SR-4835] | 264 | 277 | 327 | 196 | 292 | 279 | – | – | – | – | – |
| N#Cc1c(Oc2ccc(F)c(NC(=O)Cc3cccc(C(F)(F)F)c3)c2)ccc2nc(NC(=O)C3CC3)sc12 [TAK632] | 467 | 393 | 455 | 472 | 478 | 417 | – | – | – | – | – |
| C[C@@H]1C[C@H](C)CN(S(=O)(=O)c2ccc3c(c2)C(=NO)c2cc(S(=O)(=O)N4C[C@H](C)C[C@H](C)C4)ccc2C3=NO)C1 [Tegavivint] | – | – | – | 236 | 338 | – | – | – | – | – | – |
| Cn1nccc1Nc1nccc(-c2cc3c(s2)C(C)(C)N(CCN2CCOCC2)C3=O)n1 [Temuterkib] | 440 | 409 | > 500 | 443 | > 500 | 484 | – | – | – | – | – |
| COc1cc2c(cc1O)CCN[C@]21CS[C@@H]2c3c(OC(C)=O)c(C)c4c(c3[C@H](COC1=O)N1[C@@H]2[C@H]2c3c(cc(C)c(OC)c3O)C[C@@H]([C@@H]1O)N2C)OCO4 [Trabectedin] | 117 | 57.9 | 133 | 24.1 | 144 | 84.9 | – | – | – | – | – |
| Nc1cc(F)ccc1NC(=O)c1ccc(CNC(=O)/C=C/c2cccnc2)cc1 [Tucidinostat] | 458 | 443 | – | 432 | 472 | 474 | – | – | – | – | – |
| O=C(Nc1ccc(Cl)c(C(F)(F)F)c1)NC1CCC(Oc2ccc(C(F)(F)F)cn2)CC1 (stereo not given) [UC2288] | 490 | 468 | 477 | 371 | 486 | 484 | – | – | – | – | – |
